Drawing on US9353088B2, “Crystalline pharmaceutical and methods of preparation and use thereof” (SARcode Bioscience Inc., priority 2009, dated 2016), this text covers mutagenicity for 1 compound.

For the data set, the system named is tester strains. Description: In vitro Ames bacterial reverse mutation assay. It is filed as cell-based. Conditions: presence or absence of microsomal (S9) enzymes. The source says: Therefore, the compound of Formula I was judged to be not mutagenic.

Consider `CS(=O)(=O)c1cccc(C[C@H](NC(=O)c2c(Cl)cc3c(c2Cl)CCN(C(=O)c2ccc4ccoc4c2)C3)C(=O)O)c1` [Compound of Formula I], for which the mutagenicity result is listed as “not mutagenic”.
